Test results reported in the supplement of paper PMC10307832.

Key:
Assay in all cases: relative viability (nuclei count vs DMSO), 5 days (fraction); higher = more cells survive
[1] = system: BEN
Procedure, shortened: (§1)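 Relative viability divides the nuclei count in treated wells by that in vehicle wells. Lung cancer cell lines were seeded in 1536-well plates, dosed by pin tool the next day, and fixed and stained after 5 days in one step with final 0.05% Triton X-100, 1% formaldehyde and 1 ug/ml Hoechst. Dosing was a single drug or a fixed anchor-drug dose plus five library-drug doses (not always all listed) in √10 steps, and values are medians of duplicate plates imaged at 4×.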

[2] = system: CAL-12T
Procedure, shortened: as §1

[3] = system: EKVX
Procedure, shortened: as §1

[4] = system: HCC-366
Procedure, shortened: as §1

[5] = system: HCC-44
Procedure, shortened: as §1

[6] = system: LOU-NH91
Procedure, shortened: as §1

[7] = system: LU99A
Procedure, shortened: as §1

[8] = system: NCI-H1355
Procedure, shortened: as §1

[9] = system: NCI-H1395
Procedure, shortened: as §1

[10] = system: NCI-H1437
Procedure, shortened: as §1

[11] = system: NCI-H1563
Procedure, shortened: as §1

[12] = system: NCI-H1651
Procedure, shortened: as §1

[13] = system: NCI-H1734
Procedure, shortened: as §1

[14] = system: NCI-H1755
Procedure, shortened: as §1

[15] = system: NCI-H1975
Procedure, shortened: as §1

[16] = system: NCI-H2023
Procedure, shortened: as §1

[17] = system: NCI-H2085
Procedure, shortened: as §1

[18] = system: NCI-H358
Procedure, shortened: as §1

[19] = system: NCI-H441
Procedure, shortened: as §1

[20] = system: NCI-H460
Procedure, shortened: as §1

[21] = system: NCI-H838
Procedure, shortened: as §1

Compound `O=C(O)c1ccc(-c2c[nH]c3ncc(-c4ccccc4)cc23)cc1C1CCCC1` + C[C@]1(O)C[C@@H](c2nc(-c3ccc4ccc(-c5ccccc5)nc4c3)c3c(N)nccn32)C1 [Linsitinib] (partner 1 µM) has a relative viability ([1]; first compound 0.04 µM) of 1.03, a relative viability ([1]; first compound 0.1265 µM) of 1.03 and a relative viability ([1]; first compound 0.4 µM) of 0.931. The relative viability ([1]; first compound 1.265 µM) was 0.859, the relative viability ([2]; first compound 0.04 µM) was 0.799 and the relative viability ([2]; first compound 0.1265 µM) was 0.834. For the same compound, the relative viability ([2]; first compound 0.4 µM) was 0.963, the relative viability ([2]; first compound 1.265 µM) was 0.6 and the relative viability ([3]; first compound 0.04 µM) was 0.984. It also gave a relative viability ([3]; first compound 0.1265 µM) of 1.18, a relative viability ([3]; first compound 0.4 µM) of 1.11 and a relative viability ([3]; first compound 1.265 µM) of 0.713. For the same compound, the relative viability ([4]; first compound 0.04 µM) was 0.657, the relative viability ([4]; first compound 0.1265 µM) was 0.759 and the relative viability ([4]; first compound 0.4 µM) was 0.882. The relative viability ([4]; first compound 1.265 µM) was 0.573, the relative viability ([5]; first compound 0.04 µM) was 0.664 and the relative viability ([5]; first compound 0.1265 µM) was 0.636. The relative viability ([5]; first compound 0.4 µM) was 0.515, the relative viability ([5]; first compound 1.265 µM) was 0.57 and the relative viability ([6]; first compound 0.04 µM) was 0.983. For the same compound, the relative viability ([6]; first compound 0.1265 µM) was 0.962, the relative viability ([6]; first compound 0.4 µM) was 0.899 and the relative viability ([6]; first compound 1.265 µM) was 0.788. It also gave a relative viability ([7]; first compound 0.04 µM) of 0.548, a relative viability ([7]; first compound 0.1265 µM) of 0.528 and a relative viability ([7]; first compound 0.4 µM) of 0.533. It also gave a relative viability ([7]; first compound 1.265 µM) of 0.511, a relative viability ([8]; first compound 0.04 µM) of 0.848 and a relative viability ([8]; first compound 0.1265 µM) of 0.79. It also gave a relative viability ([8]; first compound 0.4 µM) of 0.887, a relative viability ([8]; first compound 1.265 µM) of 0.633 and a relative viability ([9]; first compound 0.04 µM) of 1.11. It also gave a relative viability ([9]; first compound 0.1265 µM) of 1.06, a relative viability ([9]; first compound 0.4 µM) of 1.08 and a relative viability ([9]; first compound 1.265 µM) of 0.796. It also gave a relative viability ([10]; first compound 0.04 µM) of 1.03, a relative viability ([10]; first compound 0.1265 µM) of 1.09 and a relative viability ([10]; first compound 0.4 µM) of 0.969. For the same compound, the relative viability ([10]; first compound 1.265 µM) was 0.55, the relative viability ([11]; first compound 0.04 µM) was 1.22 and the relative viability ([11]; first compound 0.1265 µM) was 1.17. For the same compound, the relative viability ([11]; first compound 0.4 µM) was 1.19, the relative viability ([11]; first compound 1.265 µM) was 1.18 and the relative viability ([12]; first compound 0.04 µM) was 0.997. The relative viability ([12]; first compound 0.1265 µM) was 0.968, the relative viability ([12]; first compound 0.4 µM) was 0.912 and the relative viability ([12]; first compound 1.265 µM) was 0.781. It also gave a relative viability ([13]; first compound 0.04 µM) of 0.917, a relative viability ([13]; first compound 0.1265 µM) of 0.938 and a relative viability ([13]; first compound 0.4 µM) of 0.816. It also gave a relative viability ([13]; first compound 1.265 µM) of 0.823, a relative viability ([14]; first compound 0.04 µM) of 0.96 and a relative viability ([14]; first compound 0.1265 µM) of 1.01. It also gave a relative viability ([14]; first compound 0.4 µM) of 1.02, a relative viability ([14]; first compound 1.265 µM) of 0.961 and a relative viability ([15]; first compound 0.04 µM) of 0.903. The relative viability ([15]; first compound 0.1265 µM) was 0.935, the relative viability ([15]; first compound 0.4 µM) was 0.951 and the relative viability ([15]; first compound 1.265 µM) was 1. The relative viability ([16]; first compound 0.04 µM) was 0.699, the relative viability ([16]; first compound 0.1265 µM) was 0.665 and the relative viability ([16]; first compound 0.4 µM) was 0.734. For the same compound, the relative viability ([16]; first compound 1.265 µM) was 0.676, the relative viability ([17]; first compound 0.04 µM) was 0.938 and the relative viability ([17]; first compound 0.1265 µM) was 1.01. The relative viability ([17]; first compound 0.4 µM) was 0.8, the relative viability ([17]; first compound 1.265 µM) was 0.644 and the relative viability ([18]; first compound 0.04 µM) was 0.649. It also gave a relative viability ([18]; first compound 0.1265 µM) of 0.819, a relative viability ([18]; first compound 0.4 µM) of 0.674 and a relative viability ([18]; first compound 1.265 µM) of 0.386. It also gave a relative viability ([19]; first compound 0.04 µM) of 0.666, a relative viability ([19]; first compound 0.1265 µM) of 0.674 and a relative viability ([19]; first compound 0.4 µM) of 0.563. It also gave a relative viability ([19]; first compound 1.265 µM) of 0.531, a relative viability ([20]; first compound 0.04 µM) of 0.783 and a relative viability ([20]; first compound 0.1265 µM) of 0.989. The relative viability ([20]; first compound 0.4 µM) was 0.753, the relative viability ([20]; first compound 1.265 µM) was 0.662 and the relative viability ([21]; first compound 0.04 µM) was 1.03. The relative viability ([21]; first compound 0.1265 µM) was 1.16, the relative viability ([21]; first compound 0.4 µM) was 1.09 and the relative viability ([21]; first compound 1.265 µM) was 0.997.
